Experimental data from ChEMBL document CHEMBL4346757, “Synthesis and biological evaluation of 7-methoxy-1-(3,4,5-trimethoxyphenyl)-4,5-dihydro-2H-benzo[e]indazoles as new colchicine site inhibitors” (Bioorg Med Chem Lett, 2019).

Assays:
Type in all cases: functional
SF-268 [1] = experiment: Growth inhibition of human SF268 cells assessed as cell growth at 1 uM after 48 hrs by SRB assay relative to control; conditions: SF-268, 48 h, read-out: Activity
NCI-H522 = experiment: Growth inhibition of human NCI-H522 cells assessed as cell growth at 10 uM after 48 hrs by SRB assay relative to control; conditions: NCI-H522, 48 h, read-out: Activity
T47D = experiment: Growth inhibition of human T47D cells assessed as cell growth at 0.01 uM after 48 hrs by SRB assay relative to control; conditions: read-out: Activity
CCRF-CEM = experiment: Growth inhibition of human CCRF-CEM cells assessed as cell growth at 100 uM after 48 hrs by SRB assay relative to control; conditions: read-out: Activity
RXF 393 = experiment: Growth inhibition of human RXF393 cells assessed as cell growth at 10 uM after 48 hrs by SRB assay relative to control; conditions: RXF 393, 48 h, read-out: Activity
UACC-62 [2] = experiment: Cytotoxicity against human UACC62 cells assessed as growth inhibition after 48 hrs by SRB assay; conditions: UACC-62, 48 h
NCI/ADR-RES = experiment: Growth inhibition of human NCI-ADR-RES cells assessed as cell growth at 100 uM after 48 hrs by SRB assay relative to control; conditions: read-out: Activity
PC-3 [3] = experiment: Growth inhibition of human PC3 cells assessed as cell growth at 0.1 uM after 48 hrs by SRB assay relative to control; conditions: PC-3, 48 h, read-out: Activity
UO-31 = experiment: Growth inhibition of human UO31 cells assessed as cell growth at 0.01 uM after 48 hrs by SRB assay relative to control; conditions: UO-31, 48 h, read-out: Activity
EKVX [4] = experiment: Growth inhibition of human EKVX cells assessed as cell growth at 100 uM after 48 hrs by SRB assay relative to control; conditions: read-out: Activity
NCI-H460 = experiment: Cytotoxicity against human NCI-H460 cells assessed as growth inhibition after 48 hrs by SRB assay; conditions: NCI-H460, 48 h
M14 = experiment: Growth inhibition of human M14 cells assessed as cell growth at 1 uM after 48 hrs by SRB assay relative to control; conditions: M14, 48 h, read-out: Activity
EKVX [5] = experiment: Growth inhibition of human EKVX cells assessed as cell growth at 0.1 uM after 48 hrs by SRB assay relative to control; conditions: read-out: Activity
MDA-MB-468 = experiment: Cytotoxicity against human MDA-MB-468 cells assessed as growth inhibition after 48 hrs by SRB assay; conditions: MDA-MB-468, 48 h
UACC-62 [6] = experiment: Growth inhibition of human UACC62 cells assessed as cell growth at 1 uM after 48 hrs by SRB assay relative to control; conditions: UACC-62, 48 h, read-out: Activity
HCT-116 = experiment: Cytotoxicity against human HCT116 cells assessed as growth inhibition after 48 hrs by SRB assay; conditions: HCT-116, 48 h
CAKI-1 = experiment: Growth inhibition of human Caki1 cells assessed as cell growth at 100 uM after 48 hrs by SRB assay relative to control; conditions: CAKI-1, 48 h, read-out: Activity
SF-268 [7] = experiment: Cytotoxicity against human SF268 cells assessed as growth inhibition after 48 hrs by SRB assay; conditions: SF-268, 48 h
A498 [8] = experiment: Growth inhibition of human A498 cells assessed as cell growth at 1 uM after 48 hrs by SRB assay relative to control; conditions: A498, 48 h, read-out: Activity
A498 [9] = experiment: Growth inhibition of human A498 cells assessed as cell growth at 100 uM after 48 hrs by SRB assay relative to control; conditions: A498, 48 h, read-out: Activity
BT-549 = experiment: Growth inhibition of human BT549 cells assessed as cell growth at 10 uM after 48 hrs by SRB assay relative to control; conditions: BT-549, 48 h, read-out: Activity
HCT-15 = experiment: Growth inhibition of human HCT15 cells assessed as cell growth at 10 uM after 48 hrs by SRB assay relative to control; conditions: HCT-15, 48 h, read-out: Activity
MCF7 = experiment: Growth inhibition of human MCF7 cells assessed as cell growth at 10 uM after 48 hrs by SRB assay relative to control; conditions: MCF7, 48 h, read-out: Activity
DU-145 = experiment: Growth inhibition of human DU145 cells assessed as cell growth at 0.01 uM after 48 hrs by SRB assay relative to control; conditions: DU-145, 48 h, read-out: Activity
PC-3 [10] = experiment: Growth inhibition of human PC3 cells assessed as cell growth at 1 uM after 48 hrs by SRB assay relative to control; conditions: PC-3, 48 h, read-out: Activity
HCC 2998 = experiment: Cytotoxicity against human HCC2998 cells assessed as growth inhibition after 48 hrs by SRB assay; conditions: HCC 2998, 48 h
UACC-257 = experiment: Growth inhibition of human UACC257 cells assessed as cell growth at 0.01 uM after 48 hrs by SRB assay relative to control; conditions: UACC-257, 48 h, read-out: Activity
MDA-MB-231 = experiment: Growth inhibition of human MDA-MB-231/ATCC cells assessed as cell growth at 100 uM after 48 hrs by SRB assay relative to control; conditions: MDA-MB-231, 48 h, read-out: Activity
HOP-92 = experiment: Growth inhibition of human HOP92 cells assessed as cell growth at 100 uM after 48 hrs by SRB assay relative to control; conditions: HOP-92, 48 h, read-out: Activity
PC-3 [11] = experiment: Cytotoxicity against human PC3 cells assessed as growth inhibition after 48 hrs by SRB assay; conditions: PC-3, 48 h
[12] = read-out: LC50 (the source's name)
[13] = read-out: pLC50 (the source's name) (converted)

COc1ccc2c(c1)CCc1n[nH]c(-c3cc(OC)c(OC)c(OC)c3)c1-2
growth at 1 µM (SF-268 [1]): 29% | growth at 10 µM (NCI-H522): -17% | growth at 0.01 µM (T47D): 59% | growth at 100 µM (CCRF-CEM): 25% | growth at 10 µM (RXF 393): -6% | GI50 (UACC-62 [2]; read-out: GI50): < 0.01 µM | CC50 (UACC-62 [2]; [12]): 50 µM | TGI (UACC-62 [2]; read-out: TGI): 13 µM | GI50 (UACC-62 [2]; read-out: pGI50 (converted)): < 0.01 µM | CC50 (UACC-62 [2]; [13]): 50.1 µM | TGI (UACC-62 [2]; read-out: pTGI (converted)): 12.9 µM | growth at 100 µM (NCI/ADR-RES): -31% | growth at 0.1 µM (PC-3 [3]): 19% | growth at 0.01 µM (UO-31): 42% | growth at 100 µM (EKVX [4]): -25% | GI50 (NCI-H460; read-out: GI50): < 0.01 µM | CC50 (NCI-H460; [12]): 68.5 µM | TGI (NCI-H460; read-out: TGI): 2.06 µM | GI50 (NCI-H460; read-out: pGI50 (converted)): < 0.01 µM | CC50 (NCI-H460; [13]): 69.2 µM | TGI (NCI-H460; read-out: pTGI (converted)): 2.04 µM | growth at 1 µM (M14): 4% | growth at 0.1 µM (EKVX [5]): 53% | GI50 (MDA-MB-468; read-out: GI50): < 0.01 µM | LC50 (concentration killing 50% of cells) (MDA-MB-468; read-out: LC50): > 100 µM | TGI (MDA-MB-468; read-out: TGI): < 0.01 µM | GI50 (MDA-MB-468; read-out: pGI50 (converted)): < 0.01 µM | LC50 (concentration killing 50% of cells) (MDA-MB-468; read-out: pLC50 (converted)): > 100 µM | TGI (MDA-MB-468; read-out: pTGI): < 0.01 µM | growth at 1 µM (UACC-62 [6]): 36% | GI50 (HCT-116; read-out: GI50): < 0.01 µM | CC50 (HCT-116; [12]): 48.9 µM | TGI (HCT-116; read-out: TGI): 1.16 µM | GI50 (HCT-116; read-out: pGI50 (converted)): < 0.01 µM | CC50 (HCT-116; [13]): 49 µM | TGI (HCT-116; read-out: pTGI (converted)): 1.15 µM | growth at 100 µM (CAKI-1): -20% | GI50 (SF-268 [7]; read-out: GI50): < 0.01 µM | CC50 (SF-268 [7]; [12]): > 100 µM | TGI (SF-268 [7]; read-out: TGI): 26.8 µM | GI50 (SF-268 [7]; read-out: pGI50 (converted)): < 0.01 µM | CC50 (SF-268 [7]; [13]): > 100 µM | TGI (SF-268 [7]; read-out: pTGI (converted)): 26.9 µM | growth at 1 µM (A498 [8]): -16% | growth at 100 µM (A498 [9]): -61% | growth at 10 µM (BT-549): 1% | growth at 10 µM (HCT-15): 3% | growth at 10 µM (MCF7): 5% | growth at 0.01 µM (DU-145): 13% | growth at 1 µM (PC-3 [10]): 18% | GI50 (HCC 2998; read-out: GI50): < 0.01 µM | CC50 (HCC 2998; [12]): 44.3 µM | TGI (HCC 2998; read-out: TGI): 11.4 µM | GI50 (HCC 2998; read-out: pGI50 (converted)): < 0.01 µM | CC50 (HCC 2998; [13]): 44.7 µM | TGI (HCC 2998; read-out: pTGI (converted)): 11.5 µM | growth at 0.01 µM (UACC-257): 47% | growth at 100 µM (MDA-MB-231): -18% | growth at 100 µM (HOP-92): -50% | GI50 (PC-3 [11]; read-out: GI50): < 0.01 µM | CC50 (PC-3 [11]; [12]): > 100 µM | TGI (PC-3 [11]; read-out: TGI): 17.8 µM | GI50 (PC-3 [11]; read-out: pGI50 (converted)): < 0.01 µM | CC50 (PC-3 [11]; [13]): > 100 µM | TGI (PC-3 [11]; read-out: pTGI (converted)): 17.8 µM
